{
  "source": "patent US20100285959A1",
  "about": "“HERBICIDAL MIXTURES” (priority 2006, published 2010)",
  "key": {"[1]": {"tested_on": "barnyardgrass (ECHCG)", "experiment": "Test 32 greenhouse, simulated flooded rice culture", "assay_type": "in vivo, Echinochloa crus-galli", "parameters": "scale not given here", "conditions": "postemergence to flood, 21 DAA", "procedure": "(§1) A greenhouse trial was conducted to evaluate the effects of Compound 1 and isoxadifen-ethyl at different ratios in simulated flooded rice culture. Plastic pots (11-cm diameter) were partially filled with non-sterilized Tama silt loam soil containing a 15:57:28 ratio of sand, silt and clay and 2.9% organic matter. Seeds of Heteranthera limosa (ducksalad; HETLI), Cyperus difformis (smallflower umbrella sedge; CYPDI), one stand of Echinochloa crus-galli (barnyardgrass; ECHCG), and one stand of four rice seedlings (Oryza sativa cv. ‘M202’; ORYSA) were planted into a single 11-cm diameter pot for each rate and mixture of rates. To obtain this planting, C. difformis and H. limosa seeds were planted separately on the surface soil layer at particular locations within each pot. Water levels were brought to a puddled condition above the soil surface directly after planting. E. crus-galli and rice seeds were planted in cavity trays in the silt loam soil and transplanted at the 1.5 and 2.0 leaf stage, respectively. E. crus-galli and rice plants were transplanted to about 2-cm depth by transferring plugs from the cavity trays. Plantings were sequential so that these plant species all reached the 2.0- to 2.5-leaf stage in the 11-cm diameter pot at time of treatment. Plantings were established and maintained in a greenhouse with day and night temperatures of about 29.5 and 26.7° C. respectively; supplemental balanced lighting was provided to maintain a 16-hour photoperiod. Pots were fertilized periodically with a 200 ppm solution of commercial Scotts Peters® Professional® General Purpose 20-20-20 Water Soluble Fertilizer, amended to 10 ppm with a commercial iron-chelate micronutrient fertilizer. The solution was supplied at time of watering via a liquid fertilizer injector.\n(§2) At treatment time, test pots were flooded to 3 cm above the soil surface and maintained at that water depth for the duration of the test. Chemical treatments were formulated in acetone and applied directly to the paddy water (i.e., postemergence to flood). Make-up volumes of acetone were added to ensure that all pots were treated with a consistent volume. Test pots were maintained in the greenhouse. A randomized complete block design was employed. Five replicates of each treatment, alone and in mixture, were used. Each species was visually evaluated for treatment effects by comparing those treated to untreated controls and rated for plant response after 21 days."}, "[2]": {"tested_on": "smallflower umbrella sedge (CYPDI)", "experiment": "Test 32 greenhouse, simulated flooded rice culture", "assay_type": "in vivo, Cyperus difformis", "conditions": "postemergence to flood, 21 DAA", "procedure": "as §1, §2"}, "[3]": {"tested_on": "corn (ZEAMD)", "experiment": "Test 25 field trial, postemergence, growth as percent of control", "assay_type": "in vivo, Zea mays ssp. indentata", "conditions": "hybrid Pioneer 31G96 RR, Zea mays ssp. indentata (corn), in vivo", "description": "Corn seeds (hybrid ‘Pioneer 31G96 RR’) were planted in mid spring season, 3.8 cm deep in a clay loam soil having 2% organic matter and a pH of 6.6. Plots were 6.1 m long by 3.0 m wide with rows spaced 76 cm apart. Seeds were spaced 15 cm apart within the rows. The field was managed using conventional tillage practices. […] Giant ragweed and Pennsylvania smartweed could only be evaluated 14 days after application. […] Results are the means of the three replicates. This growth inhibition data was converted to results in the form of “plant growth as a percent of control plant growth” using the calculation “100 minus growth inhibition”.\nWhen this form of Colby's Equation is used, if the observed effects on weeds are less than the expected values, the mixture is synergistic."}, "[4]": {"tested_on": "velvetleaf (ABUTH)", "experiment": "Test 18 greenhouse, post- and preemergence", "conditions": "15 DAA"}, "[5]": {"tested_on": "velvetleaf (ABUTH)", "experiment": "Test 26 field trial, postemergence", "assay_type": "in vivo, Abutilon theophrasti", "description": "Corn seeds (hybrid ‘Pioneer 31G96’) were planted in mid spring season, 3.8 cm deep in a silt loam soil having 2% organic matter and a pH of 6.6. Plots were 6.1 m long by 3.0 m wide with rows spaced 76 cm apart. Seeds were spaced 15 cm apart within the rows. The field was managed using conventional tillage practices. […] All treatments also included a surfactant. […] Some of the weed species could not be evaluated at every timing. […] Results are the means of the three replicates."}, "[6]": {"tested_on": "sorghum (SORVU)", "experiment": "Test 28 greenhouse, postemergence", "assay_type": "in vivo, Sorghum vulgare", "conditions": "26 DAA", "procedure": "A greenhouse test was conducted to evaluate the effects on the plant species corn (ZEAMD, Zea mays ssp. indentata), sorghum (SORVU, Sorghum vulgare L.), dry-seeded rice (ORYSA, Oryza sativa L.), wheat (TRZAW, Triticum aestivum L.), ivyleaf morningglory (IPOHE, Ipomoea hederacea (L.) JACQ.), and barnyardgrass (ECHCG, Echinochloa crus-galli (L.) P. BEAUV.), of mixtures of Compound 2 with isoxadifen-ethyl. Corn, sorghum, rice, wheat, ivyleaf morningglory and barnyardgrass seeds were planted in RediEarth, a commercial potting medium. […] Corn plants were treated postemergence at the V2 growth stage, and sorghum, rice, wheat, ivyleaf morningglory, and barnyardgrass plants were treated postemergence at the 3-leaf stage. […] Each treatment was replicated three times. […] Plants were watered as needed."}, "[7]": {"tested_on": "Russian thistle (SASKR)", "experiment": "Test 24 growth chamber, postemergence", "assay_type": "in vivo, Salsola kali", "conditions": "17 DAA", "procedure": "(§3) Plants were treated postemergence at the 2-4 leaf growth stage, and each treatment was replicated three times. […] Plants were watered as needed. […] Results for barley and wheat are the means across varieties of the three replicates, and results for the weeds are the means of the three replicates."}, "[8]": {"tested_on": "wild buckwheat (POLCO)", "experiment": "Test 24 growth chamber, postemergence", "assay_type": "in vivo, Polygonum convolvulus", "conditions": "17 DAA", "procedure": "as §3"}, "[9]": {"tested_on": "winter wheat (TRZAW)", "experiment": "Test 24 growth chamber, postemergence", "assay_type": "in vivo, Triticum aestivum", "conditions": "17 DAA", "procedure": "as §3"}, "[10]": {"tested_on": "winter barley (HORVW)", "experiment": "Test 24 growth chamber, postemergence", "assay_type": "in vivo, Hordeum vulgare", "conditions": "17 DAA", "procedure": "as §3"}},
  "data": [
    {"smiles": "Nc1nc(C2CC2)nc(C(=O)O)c1Cl", "note": "[Compound 1, 6-amino-5-chloro-2-cyclopropyl-4-pyrimidinecarboxylic acid]", "values": [
      {"measurement": "ECHCG Obs", "setting": "[1]; Cpd 1 31.25 g a.i./ha", "result": 10},
      {"measurement": "ECHCG Obs", "setting": "[1]; Cpd 1 62.5 g a.i./ha", "result": 19},
      {"measurement": "ECHCG Obs", "setting": "[1]; Cpd 1 125 g a.i./ha", "result": 37},
      {"measurement": "CYPDI Obs", "setting": "[2]; Cpd 1 31.25 g a.i./ha", "result": 80},
      {"measurement": "CYPDI Obs", "setting": "[2]; Cpd 1 62.5 g a.i./ha", "result": 74},
      {"measurement": "CYPDI Obs", "setting": "[2]; Cpd 1 125 g a.i./ha", "result": 92}
    ]},
    {"smiles": "COC(=O)c1nc(C2CC2)nc(N)c1Cl", "note": "[Compound 2, methyl 6-amino-5-chloro-2-cyclopropyl-4-pyrimidinecarboxylate]", "values": [
      {"measurement": "ZEAMD Obs (percent of control)", "setting": "[3]; 14 days after application", "result": 100, "unit": "%"},
      {"measurement": "ZEAMD Obs (percent of control)", "setting": "[3]; 56 days after application", "result": 100, "unit": "%"},
      {"measurement": "Postemergence ABUTH Obs", "setting": "[4]; alone at 15 g a.i./ha", "result": 39},
      {"measurement": "Preemergence ABUTH Obs", "setting": "[4]; alone at 15 g a.i./ha", "result": 16},
      {"measurement": "Postemergence ABUTH Obs", "setting": "[4]; alone at 30 g a.i./ha", "result": 58},
      {"measurement": "Preemergence ABUTH Obs", "setting": "[4]; alone at 30 g a.i./ha", "result": 26},
      {"measurement": "Postemergence ABUTH Obs", "setting": "[4]; alone at 45 g a.i./ha", "result": 67},
      {"measurement": "Preemergence ABUTH Obs", "setting": "[4]; alone at 45 g a.i./ha", "result": 28},
      {"measurement": "ABUTH Obs", "setting": "[5]; 14 DAA, 30 g a.i./ha", "result": 86},
      {"measurement": "ABUTH Obs", "setting": "[5]; 14 DAA, 45 g a.i./ha", "result": 64},
      {"measurement": "ABUTH Obs", "setting": "[5]; 14 DAA, 60 g a.i./ha", "result": 95},
      {"measurement": "ABUTH Obs", "setting": "[5]; 28 DAA, 30 g a.i./ha", "result": 80},
      {"measurement": "ABUTH Obs", "setting": "[5]; 28 DAA, 45 g a.i./ha", "result": 59},
      {"measurement": "ABUTH Obs", "setting": "[5]; 28 DAA, 60 g a.i./ha", "result": 90},
      {"measurement": "ABUTH Obs", "setting": "[5]; 56 DAA, 30 g a.i./ha", "result": 40},
      {"measurement": "ABUTH Obs", "setting": "[5]; 56 DAA, 45 g a.i./ha", "result": 57},
      {"measurement": "ABUTH Obs", "setting": "[5]; 56 DAA, 60 g a.i./ha", "result": 63},
      {"measurement": "SORVU Obs", "setting": "[6]; Cpd 2 32 g a.i./ha", "result": 73, "unit": "%"},
      {"measurement": "SORVU Obs", "setting": "[6]; Cpd 2 64 g a.i./ha", "result": 96, "unit": "%"},
      {"measurement": "SASKR Obs (scale 0 to 100)", "setting": "[7]; Cpd 2 4 g a.i./ha", "result": 63},
      {"measurement": "SASKR Obs (scale 0 to 100)", "setting": "[7]; Cpd 2 8 g a.i./ha", "result": 75},
      {"measurement": "SASKR Obs (scale 0 to 100)", "setting": "[7]; Cpd 2 16 g a.i./ha", "result": 75},
      {"measurement": "POLCO Obs (scale 0 to 100)", "setting": "[8]; Cpd 2 4 g a.i./ha", "result": 55},
      {"measurement": "POLCO Obs (scale 0 to 100)", "setting": "[8]; Cpd 2 8 g a.i./ha", "result": 60},
      {"measurement": "POLCO Obs (scale 0 to 100)", "setting": "[8]; Cpd 2 16 g a.i./ha", "result": 70},
      {"measurement": "TRZAW Obs (scale 0 to 100)", "setting": "[9]; Cpd 2 4 g a.i./ha", "result": 21},
      {"measurement": "TRZAW Obs (scale 0 to 100)", "setting": "[9]; Cpd 2 8 g a.i./ha", "result": 33},
      {"measurement": "TRZAW Obs (scale 0 to 100)", "setting": "[9]; Cpd 2 16 g a.i./ha", "result": 39},
      {"measurement": "HORVW Obs (scale 0 to 100)", "setting": "[10]; Cpd 2 4 g a.i./ha", "result": 19},
      {"measurement": "HORVW Obs (scale 0 to 100)", "setting": "[10]; Cpd 2 8 g a.i./ha", "result": 28},
      {"measurement": "HORVW Obs (scale 0 to 100)", "setting": "[10]; Cpd 2 16 g a.i./ha", "result": 37}
    ]}
  ]
}
